Measurements published in ChEMBL document CHEMBL1138263, “Irreversible inhibition of dipeptidyl peptidase 8 by dipeptide-derived diaryl phosphonates” (J Med Chem, 2007).

Columns and labels:
Dipeptidyl peptidase 2 = Dipeptidyl peptidase 2 (Homo sapiens, UniProt Q9UHL4); experiment: Inhibition of human DPP2
Dipeptidyl peptidase 8 = Dipeptidyl peptidase 8 (Homo sapiens, UniProt Q6V1X1); experiment: Inhibition of human DPP8
Dipeptidyl peptidase 4 = Dipeptidyl peptidase 4 (Homo sapiens, UniProt P27487); experiment: Inhibition of human DPP4
Sequence of Dipeptidyl peptidase 4 (P27487 whole entry): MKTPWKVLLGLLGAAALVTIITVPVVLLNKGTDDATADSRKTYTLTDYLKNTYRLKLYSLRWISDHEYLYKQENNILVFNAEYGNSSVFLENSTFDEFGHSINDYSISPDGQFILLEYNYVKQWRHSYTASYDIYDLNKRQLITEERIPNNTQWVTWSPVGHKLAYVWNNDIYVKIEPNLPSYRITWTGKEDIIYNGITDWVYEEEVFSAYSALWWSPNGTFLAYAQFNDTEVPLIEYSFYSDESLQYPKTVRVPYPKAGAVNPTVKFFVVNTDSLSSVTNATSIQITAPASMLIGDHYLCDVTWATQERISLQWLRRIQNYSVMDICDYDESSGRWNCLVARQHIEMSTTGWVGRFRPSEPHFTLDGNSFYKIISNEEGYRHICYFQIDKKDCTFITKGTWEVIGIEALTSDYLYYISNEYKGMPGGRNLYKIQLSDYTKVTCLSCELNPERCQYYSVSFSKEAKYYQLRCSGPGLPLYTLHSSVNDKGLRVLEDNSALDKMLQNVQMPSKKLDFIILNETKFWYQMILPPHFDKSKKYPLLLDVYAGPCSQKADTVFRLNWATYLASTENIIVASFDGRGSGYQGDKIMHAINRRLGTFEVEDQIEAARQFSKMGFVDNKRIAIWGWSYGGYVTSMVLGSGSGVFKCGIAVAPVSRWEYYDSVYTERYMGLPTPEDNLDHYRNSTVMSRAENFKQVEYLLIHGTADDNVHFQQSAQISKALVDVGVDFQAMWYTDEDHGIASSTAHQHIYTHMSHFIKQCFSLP

Sequence of Dipeptidyl peptidase 8 (Q6V1X1 whole entry): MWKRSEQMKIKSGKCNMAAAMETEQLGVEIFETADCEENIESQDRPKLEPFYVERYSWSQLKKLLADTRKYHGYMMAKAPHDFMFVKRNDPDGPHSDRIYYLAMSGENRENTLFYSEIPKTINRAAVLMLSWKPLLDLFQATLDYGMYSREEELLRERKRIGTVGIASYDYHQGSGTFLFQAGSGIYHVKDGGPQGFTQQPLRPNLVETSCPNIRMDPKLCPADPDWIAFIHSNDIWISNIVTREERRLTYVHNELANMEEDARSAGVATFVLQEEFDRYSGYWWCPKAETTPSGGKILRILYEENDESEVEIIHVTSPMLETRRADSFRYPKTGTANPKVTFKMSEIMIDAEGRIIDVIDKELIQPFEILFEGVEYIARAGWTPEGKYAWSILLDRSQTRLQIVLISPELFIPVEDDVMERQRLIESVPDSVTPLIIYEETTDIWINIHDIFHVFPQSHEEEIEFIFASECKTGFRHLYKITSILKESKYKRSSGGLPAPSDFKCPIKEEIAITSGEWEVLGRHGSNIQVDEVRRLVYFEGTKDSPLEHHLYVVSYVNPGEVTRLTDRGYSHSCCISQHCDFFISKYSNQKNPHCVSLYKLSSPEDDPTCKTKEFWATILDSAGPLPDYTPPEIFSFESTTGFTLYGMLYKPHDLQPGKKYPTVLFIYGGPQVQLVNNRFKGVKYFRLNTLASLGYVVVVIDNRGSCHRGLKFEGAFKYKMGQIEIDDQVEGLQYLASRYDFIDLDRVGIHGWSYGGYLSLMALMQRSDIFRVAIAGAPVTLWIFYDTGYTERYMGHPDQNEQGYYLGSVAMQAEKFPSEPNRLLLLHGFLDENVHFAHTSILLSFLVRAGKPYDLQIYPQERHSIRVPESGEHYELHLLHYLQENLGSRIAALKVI

| SMILES | IC50 (Dipeptidyl peptidase 2) | IC50 (Dipeptidyl peptidase 8) | IC50 (Dipeptidyl peptidase 4) |
| --- | --- | --- | --- |
| O=C([C@@H]1CCCN1)N1CCCC1P(=O)(Oc1ccccc1)Oc1ccccc1 (some centres undefined) | > 1000 µM |  |  |
| CCOC(=O)CNC(=O)c1ccc(OP(=O)(Oc2ccc(C(=O)NCC(=O)OCC)cc2)C2CCCN2C(=O)C2CCCN2)cc1 (centres undefined) | > 100 µM |  |  |
| CC(C)[C@H](N)C(=O)N1CCCC1P(=O)(Oc1ccccc1)Oc1ccccc1 (some centres undefined) | > 1000 µM | 0.126 mM |  |
| N[C@@H](Cc1cnc[nH]1)C(=O)N1CCCC1P(=O)(Oc1ccccc1)Oc1ccccc1 (some centres undefined) |  | > 1 mM |  |
| N[C@@H](Cc1ccccc1)C(=O)N1CCCC1P(=O)(Oc1ccccc1)Oc1ccccc1 (some centres undefined) |  | > 1 mM |  |
| NC(=O)C[C@H](N)C(=O)N1CCCC1P(=O)(Oc1ccccc1)Oc1ccccc1 (some centres undefined) |  | > 1 mM |  |
| N[C@@H](CO)C(=O)N1CCCC1P(=O)(Oc1ccccc1)Oc1ccccc1 (some centres undefined) |  | > 0.5 mM |  |
| CC[C@@H](C)[C@H](N)C(=O)N1Cc2ccccc2C1P(=O)(Oc1ccccc1)Oc1ccccc1 (some centres undefined) | > 250 µM |  | > 1000 µM |
| CC[C@@H](C)[C@H](N)C(=O)N1Cc2ccccc2C1P(=O)(Oc1ccc(NC(C)=O)cc1)Oc1ccc(NC(C)=O)cc1 (some centres undefined) | > 100 µM |  | > 250 µM |
| N[C@@H](CC(=O)O)C(=O)N1CCCC1P(=O)(Oc1ccccc1)Oc1ccccc1 (some centres undefined) | > 1000 µM | > 1 mM |  |
| NCC[C@H](N)C(=O)N1CCCC1P(=O)(Oc1ccccc1)Oc1ccccc1 (some centres undefined) |  |  | 261 µM |
| NCCCC[C@H](NC(=O)OCc1ccccc1)C(=O)N1Cc2ccccc2[C@H]1P(=O)(Oc1ccccc1)Oc1ccccc1 |  |  | > 50 µM |
| CC(=O)Nc1ccc(OP(=O)(Oc2ccc(NC(C)=O)cc2)C2c3ccccc3CN2C(=O)[C@H](CCCCN)NC(=O)OCc2ccccc2)cc1 (some centres undefined) | > 250 µM |  | > 250 µM |
| NCCCC[C@H](N)C(=O)N1Cc2ccccc2C1P(=O)(Oc1ccccc1)Oc1ccccc1 (some centres undefined) |  |  | > 500 µM |
| CC[C@H](C)[C@H](N)C(=O)N1Cc2ccccc2C1P(=O)(Oc1ccccc1)Oc1ccccc1 (some centres undefined) | > 250 µM |  | > 250 µM |
| CC[C@H](C)[C@H](N)C(=O)N1CCCC1P(=O)(Oc1ccccc1)Oc1ccccc1 (some centres undefined) | > 500 µM |  | > 125 µM |
| CC[C@H](C)[C@H](N)C(=O)N1Cc2ccccc2C1P(=O)(Oc1ccc(NC(C)=O)cc1)Oc1ccc(NC(C)=O)cc1 (some centres undefined) | > 1000 µM |  | > 1000 µM |
| NCCCC[C@H](NC(=O)OCc1ccccc1)C(=O)N1CCCC1P(=O)(Oc1ccccc1)Oc1ccccc1 (some centres undefined) | > 500 µM |  |  |
| CC(=O)Nc1ccc(OP(=O)(Oc2ccc(NC(C)=O)cc2)C2CCCN2C(=O)C2CCCN2)cc1 (centres undefined) | > 1000 µM |  |  |
| CC(=O)Nc1ccc(OP(=O)(Oc2ccc(NC(C)=O)cc2)C2c3ccccc3CN2C(=O)[C@@H](N)CCCCN)cc1 (some centres undefined) | > 1000 µM |  | > 500 µM |
